In US12180146B2, “Antihypertensive polyol compound and derivative thereof” (TAO PHARMACEUTICAL (SUZHOU) CO., LTD, priority 2020, dated 2024):

What was measured:
[1] = tested on: monocrotaline-induced pulmonary hypertension model rats (MCT-PAH); test: Monocrotaline-induced pulmonary hypertension model rats, aerosol inhalation treatment; assay type: in vivo, SD rats; details: 30 mg/kg, inh, 28 days
Procedure: A pulmonary hypertension animal model of SD rats was established by subcutaneous injection of monocrotaline (MCT). The compound 1 was administered by aerosol inhalation for treatment. The pulmonary artery hemodynamics and right heart hypertrophy index RVHI of rats were tested to determine whether compound 1 administered by aerosol inhalation has effects of improving monocrotaline-induced pulmonary hypertension.
(§1) SD rats (purchased from Shanghai Xipuer-Bikai Experimental Animal Co., Ltd.), male, weighing 180-200 g, were bred in an artificially controlled animal room with each 12 hours of light and darkness at a temperature of 20-25° C. and relative humidity of 50-60%, and allowed ad libitum to food and water. The rats were randomly divided into groups according to the experimental requirements, and kept separately in cages, with 3 to 4 rats per cage. All relevant operations of animal experiments are in compliance with the provisions of “Guidelines for the Management and Use of Laboratory Animals” of China.
In the second experiment, the rats were divided into 5 groups, namely the control group, model group, positive control Tyvaso (1.62 μg/kg) group, compound 1 (10 mg/kg) group and compound 1 (30 mg/kg) group. On the first day of the experiment, normal saline was injected subcutaneously into the back of the neck of the rats in the blank control group, and monocrotaline (Chengdu Purifa Biotechnology Co., Ltd.) solution was injected in the other groups at a dosage of 60 mg/kg. Compound 1 and Tyvaso were administered by aerosol inhalation, that is, the compound was firstly dissolved in physiological saline, and then the solution was prepared into an aerosol with a nebulizer to be inhaled into the mouth and nose of rats. The rats in the control group and the model group only inhaled an aerosol made of physiological saline. The rats were continuously administered for 28 days, and the concentration in the parentheses of the group name represents the administered concentration of the compound. Specific groupings can be found in Table 9. After the administration, the pulmonary vascular hemodynamics and RVHI were determined in the same way as the experiment method in Example 1.

[2] = tested on: hypoxic pulmonary hypertension model rats; test: Hypoxic pulmonary hypertension model rats, oral (gavage) treatment for 28 days; assay type: in vivo, SD rats; details: hypoxic PAH rats, 200 mg/kg, po
Procedure: An animal model of pulmonary hypertension in SD rats was established in a hypoxic and low-pressure environment, and compound 1 was administered by gavage at the same time for treatment. The rat pulmonary artery hemodynamics and right heart hypertrophy index RVHI were measured to determine whether compound 1 has effects of improving hypoxic pulmonary hypertension.
as §1
The hypoxic PAH model was established by placing SD male rats in a fully-automatically regulated low-pressure hypoxic chamber (atmospheric pressure of about 50 kPa, oxygen concentration of 10%) for 8 hours a day for 28 days. The rats in the blank control group were kept in a normoxic environment.
The experimental rats of hypoxic PAH model were divided into 8 groups, namely blank control group, model group, Sidenafil (25 mg/kg) group, compound 1 (10 mg/kg) group, compound 1 (25 mg/kg) group, compound 1 (50 mg/kg) group, compound 1 (100 mg/kg) group, and compound 1 (200 mg/kg) group. The concentration in the parentheses of the group name represents the administration concentration of the compound or drug. In hypoxia-induced PAH experiments, Sidenafil is often used as a positive drug, which can reduce the pulmonary artery pressure in rats and reduce the right ventricular hypertrophy and vascular remodeling. In this experiment, 25 mg/kg of Sidenafil was used as the positive drug. Both the positive drugs Sidenafil and Compound 1 were dissolved in physiological saline and formulated into solutions of different concentrations according to different administration concentrations. The rats were continuously administered for 28 days with an administration volume of 5 ml/kg. Rats in the control and model groups were given the corresponding volume of physiological saline solution via gavage. The specific grouping can be found in Table 5.
After the administration was completed, the POWERLAB biological information acquisition and treatment system was started, and the right cardiac catheter filled with 0.2% heparin sodium (Beijing Solo Technology Co. Ltd.) in normal saline was connected to the pressure transducer and then zero-calibrationed for use. After 20% urethane (Shanghai Yuanye Biotechnology Co., Ltd.) solution was injected into the abdominal cavity of the rats for anesthesia, the right neck hair was shaved and the right jugular vein was isolated and exposed. […] After the typical right ventricular waveform appeared and stabilized for a while, the waveform was recorded, and then the pressure value was read by Powerlab biological information acquisition and processing system (ADInstruments).
After the pressure was measured, the catheter was taken out, and the rat was dissected immediately to take out the heart and lung tissues. The right ventricle (RV) and the left ventricle and interventricular septum (LV+S) were separated and weighed, and the right heart hypertrophy index RVHI=RV/(LV+S) was calculated. The lung lobe tissue from the right lower part of the lung was separated, soaked in 4% paraformaldehyde (Sigma) for about 1 week to prepare a paraffin section with a thickness of 3 μm, and then conducted to hematoxylin-eosin staining (Wuhan Guge Biotechnology Co., Ltd.). […]

[3] = tested on: spontaneously hypertensive rats (SHR); test: Antihypertensive activity test: blood pressure and heart rate of spontaneously hypertensive rats (SHR); assay type: in vivo, rat; details: 200 mg/kg
Procedure, shortened: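 Spontaneously hypertensive rats received compound at 200 mg/kg. SBP and heart rate were measured before and after dosing. A drop in SBP of ≥20 mmHg from baseline counted as effective, and heart-rate changes were tested by paired t-test (P<0.05).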

[4] = tested on: monocrotaline-induced pulmonary hypertension model rats (MCT-PAH); test: Monocrotaline-induced pulmonary hypertension model rats, oral (gavage) treatment for 21 days; assay type: in vivo, SD rats; details: 100 mg/kg
Excerpt: Monocrotaline (MCT) was subcutaneously injected to establish an animal model of pulmonary hypertension in SD rats. At the same time, compound 1 was given by gavage for treatment. The pulmonary artery hemodynamics and right heart hypertrophy index RVHI of the rates were detected to determine whether the oral administration of compound 1 has effects of improving Monocrotaline induces pulmonary hypertension.
as §1
During the experiment, SD rats were randomly divided into 4 groups: blank control group, pulmonary hypertension model group, Selexipag (1 mg/kg) treatment group and compound 1 (100 mg/kg) group with 6 rats in each group, and the concentration in brackets represents the administration concentration of the compound, in which Selexipag is a new oral long-acting prostacyclin receptor agonist discovered and synthesized by Japan New Drug Co., Ltd. On the first day of the experiment, normal saline was injected subcutaneously into the back of neck of rats in the blank control group, and monocrotaline (Chengdu Purifa Biotechnology Co., Ltd.) solution was injected in the rats in other groups at a dosage of 60 mg/kg. Both the positive drug, Selexipag and Compound 1 were administered by gavage. Selexipag and […] were dissolved in 0.5% CMC-Na solution. The rats were continuously administered for 21 days with a volume of […]. The rats in the control and model groups were given the corresponding volume of CMC-Na solution by gavage. Specific groupings can be found in Table 7.
After the administration, the pulmonary vascular hemodynamics and RVHI was determined according to the same experiment method as that in Example 1.

CCc1cccc(C(COC(C)=O)OC(C)=O)c1 (stereo not drawn) [Compound 30]
2 × MT/ED [1]: 0.402 ± 0.034 | RVHI [1]: 0.273 ± 0.043 | RVSP [1]: 46.04 ± 3.27 mmHg | mPAP [1]: 16.00 ± 3.44 mmHg | 2 × MT/ED [2]: 0.287 ± 0.025 | RVHI [2]: 0.303 ± 0.0632 | RVSP [2]: 62.14 ± 3.35 mmHg | mPAP [2]: 16.03 ± 5.35 mmHg | SBP Difference before and after administration, 1 h ([3]; 1 h): 4 mmHg | SHR blood pressure (SBP), time after administration 1 h ([3]; 1 h, n = 8): 189 ± 7.54 mmHg | SBP Difference before and after administration, 2 h ([3]; 2 h): 5 mmHg | SHR blood pressure (SBP), time after administration 2 h ([3]; 2 h, n = 8): 188 ± 3.69 mmHg | SBP Difference before and after administration, 3 h ([3]; 3 h): 8 mmHg | SHR blood pressure (SBP), time after administration 3 h ([3]; 3 h, n = 8): 185 ± 10.11 mmHg | SBP Difference before and after administration, 4 h ([3]; 4 h): 20 mmHg | SHR blood pressure (SBP), time after administration 4 h ([3]; 4 h, n = 8): 183 ± 9.66 mmHg | SBP Difference before and after administration, 5 h ([3]; 5 h): 5 mmHg | SHR blood pressure (SBP), time after administration 5 h ([3]; 5 h, n = 8): 188 ± 14.9 mmHg | SBP Difference before and after administration, 6 h ([3]; 6 h): 5 mmHg | SHR blood pressure (SBP), time after administration 6 h ([3]; 6 h, n = 8): 188 ± 8.64 mmHg | 2 × MT/ED [4]: 0.31 ± 0.021 | RVHI [4]: 0.245 ± 0.032 | RVSP [4]: 44.38 ± 2.89 mmHg | mPAP [4]: 16.21 ± 1.29 mmHg
